Data: ChEMBL document CHEMBL3045892, “Synthesis and evaluation of in vitro antimicrobial activity of novel 2,3-disubstituted-4-thiazolidinones from fatty acid hydrazides” (2013)
In brackets after ≈: the same amount, converted by molar mass.

The compounds below were run on Aspergillus fumigatus (assay: Antifungal activity against Aspergillus fumigatus by disk diffusion method). Details: not given.
Type: functional

Structure (SMILES) | diameter of the inhibition zone (DIZ) [mm]
CCCCCCCC/C=C\CCCCCCCC(=O)NN1C(=O)CSC1c1ccc(Cl)cc1 (centres undefined) | 21.4

Each compound was assayed on Escherichia coli (assay: Antibacterial activity against Escherichia coli ATCC 25922 after 24 hr by disk diffusion method). Details: not given.
Type: functional

Structure (SMILES) | diameter of the inhibition zone (DIZ) [mm]
CCCCCCCC/C=C\CCCCCCCC(=O)NN1C(=O)CSC1c1ccc(Cl)cc1 (centres undefined) | 17.6

Each compound was assayed on Klebsiella pneumoniae (assay: Antibacterial activity against Klebsiella pneumoniae clinical isolate after 24 hr by broth dilution method). Details: not given.
Type: functional

MIC [µg/mL] | Structure (SMILES)
25 (≈ 50.7 µM) | CCCCCCCC/C=C\CCCCCCCC(=O)NN1C(=O)CSC1c1ccc(Cl)cc1 (centres undefined)

These compounds were tested on Klebsiella pneumoniae (assay: Antibacterial activity against Klebsiella pneumoniae clinical isolate after 24 hr by disk diffusion method). Details: not given.
Type: functional

Structure (SMILES) | diameter of the inhibition zone (DIZ) [mm]
CCCCCCCC/C=C\CCCCCCCC(=O)NN1C(=O)CSC1c1ccc(Cl)cc1 (centres undefined) | 17.1

Each compound was assayed on Escherichia coli (assay: Antibacterial activity against Escherichia coli ATCC 25922 incubated for 24 hr followed by subculturing measured after 18 to 24 hr). Details: not given.
Type: functional

Structure (SMILES) | MBC [µg/mL]
CCCCCCCC/C=C\CCCCCCCC(=O)NN1C(=O)CSC1c1ccc(Cl)cc1 (centres undefined) | 100 (≈ 203 µM)

Each compound was assayed on Streptococcus pyogenes (assay: Antibacterial activity against Streptococcus pyogenes after 24 hr by broth dilution method). Details: not given.
Type: functional

MIC [µg/mL] | Structure (SMILES)
25 (≈ 50.7 µM) | CCCCCCCC/C=C\CCCCCCCC(=O)NN1C(=O)CSC1c1ccc(Cl)cc1 (centres undefined)

The compounds below were run on Pseudomonas aeruginosa (assay: Antibacterial activity against Pseudomonas aeruginosa ATCC 27853 incubated for 24 hr followed by subculturing measured after 18 to 24 hr). Details: not given.
Type: functional

Structure (SMILES) | MBC [µg/mL]
CCCCCCCC/C=C\CCCCCCCC(=O)NN1C(=O)CSC1c1ccc(Cl)cc1 (centres undefined) | 100 (≈ 203 µM)

Each compound was assayed on Trichophyton mentagrophytes (assay: Antifungal activity against Trichophyton mentagrophytes after 48 hr). Details: not given.
Type: functional

MIC [µg/mL] | Structure (SMILES)
25 (≈ 50.7 µM) | CCCCCCCC/C=C\CCCCCCCC(=O)NN1C(=O)CSC1c1ccc(Cl)cc1 (centres undefined)

These compounds were tested on Candida albicans (assay: Antifungal activity against Candida albicans incubated for 48 hr followed by subculturing measured after 48 hr). Details: not given.
Type: functional

Structure (SMILES) | MFC [µg/mL]
CCCCCCCC/C=C\CCCCCCCC(=O)NN1C(=O)CSC1c1ccc(Cl)cc1 (centres undefined) | 50 (≈ 101 µM)

What follows are compounds tested on Streptococcus pyogenes (assay: Antibacterial activity against Streptococcus pyogenes incubated for 24 hr followed by subculturing measured after 18 to 24 hr). Details: not given.
Type: functional

Structure (SMILES) | MBC [µg/mL]
CCCCCCCC/C=C\CCCCCCCC(=O)NN1C(=O)CSC1c1ccc(Cl)cc1 (centres undefined) | 100 (≈ 203 µM)

The compounds below were run on Candida albicans (assay: Antifungal activity against Candida albicans after 48 hr). Details: not given.
Type: functional

MIC [µg/mL] | Structure (SMILES)
12.5 (≈ 25.3 µM) | CCCCCCCC/C=C\CCCCCCCC(=O)NN1C(=O)CSC1c1ccc(Cl)cc1 (centres undefined)

What follows are compounds tested on Candida albicans (assay: Antifungal activity against Candida albicans by disk diffusion method). Details: not given.
Type: functional

Structure (SMILES) | diameter of the inhibition zone (DIZ) [mm]
CCCCCCCC/C=C\CCCCCCCC(=O)NN1C(=O)CSC1c1ccc(Cl)cc1 (centres undefined) | 24.2

These compounds were tested on Aspergillus fumigatus (assay: Antifungal activity against Aspergillus fumigatus after 48 hr). Details: not given.
Type: functional

MIC [µg/mL] | Structure (SMILES)
12.5 (≈ 25.3 µM) | CCCCCCCC/C=C\CCCCCCCC(=O)NN1C(=O)CSC1c1ccc(Cl)cc1 (centres undefined)

Each compound was assayed on Pseudomonas aeruginosa (assay: Antibacterial activity against Pseudomonas aeruginosa ATCC 27853 after 24 hr by broth dilution method). Details: ATCC 27853, 24 h.
Type: functional

MIC [µg/mL] | Structure (SMILES)
50 (≈ 101 µM) | CCCCCCCC/C=C\CCCCCCCC(=O)NN1C(=O)CSC1c1ccc(Cl)cc1 (centres undefined)

The compounds below were run on Aspergillus fumigatus (assay: Antifungal activity against Aspergillus fumigatus incubated for 48 hr followed by subculturing measured after 48 hr). Details: not given.
Type: functional

Structure (SMILES) | MFC [µg/mL]
CCCCCCCC/C=C\CCCCCCCC(=O)NN1C(=O)CSC1c1ccc(Cl)cc1 (centres undefined) | 50 (≈ 101 µM)

The compounds below were run on Pseudomonas aeruginosa (assay: Antibacterial activity against Pseudomonas aeruginosa ATCC 27853 after 24 hr by disk diffusion method). Details: not given.
Type: functional

Structure (SMILES) | diameter of the inhibition zone (DIZ) [mm]
CCCCCCCC/C=C\CCCCCCCC(=O)NN1C(=O)CSC1c1ccc(Cl)cc1 (centres undefined) | 19.9

These compounds were tested on Talaromyces marneffei (assay: Antifungal activity against Talaromyces marneffei by disk diffusion method). Details: not given.
Type: functional

Structure (SMILES) | diameter of the inhibition zone (DIZ) [mm]
CCCCCCCC/C=C\CCCCCCCC(=O)NN1C(=O)CSC1c1ccc(Cl)cc1 (centres undefined) | 14.1

The compounds below were run on Trichophyton mentagrophytes (assay: Antifungal activity against Trichophyton mentagrophytes incubated for 48 hr followed by subculturing measured after 48 hr). Details: not given.
Type: functional

Structure (SMILES) | MFC [µg/mL]
CCCCCCCC/C=C\CCCCCCCC(=O)NN1C(=O)CSC1c1ccc(Cl)cc1 (centres undefined) | 50 (≈ 101 µM)

These compounds were tested on Talaromyces marneffei (assay: Antifungal activity against Talaromyces marneffei after 48 hr). Details: not given.
Type: functional

MIC [µg/mL] | Structure (SMILES)
25 (≈ 50.7 µM) | CCCCCCCC/C=C\CCCCCCCC(=O)NN1C(=O)CSC1c1ccc(Cl)cc1 (centres undefined)

What follows are compounds tested on Klebsiella pneumoniae (assay: Antibacterial activity against Klebsiella pneumoniae clinical isolate incubated for 24 hr followed by subculturing measured after 18 to 24 hr). Details: not given.
Type: functional

Structure (SMILES) | MBC [µg/mL]
CCCCCCCC/C=C\CCCCCCCC(=O)NN1C(=O)CSC1c1ccc(Cl)cc1 (centres undefined) | 50 (≈ 101 µM)

These compounds were tested on Escherichia coli (assay: Antibacterial activity against Escherichia coli ATCC 25922 after 24 hr by broth dilution method). Details: ATCC 25922, 24 h.
Type: functional

MIC [µg/mL] | Structure (SMILES)
25 (≈ 50.7 µM) | CCCCCCCC/C=C\CCCCCCCC(=O)NN1C(=O)CSC1c1ccc(Cl)cc1 (centres undefined)

These compounds were tested on Trichophyton mentagrophytes (assay: Antifungal activity against Trichophyton mentagrophytes by disk diffusion method). Details: not given.
Type: functional

Structure (SMILES) | diameter of the inhibition zone (DIZ) [mm]
CCCCCCCC/C=C\CCCCCCCC(=O)NN1C(=O)CSC1c1ccc(Cl)cc1 (centres undefined) | 17.6

These compounds were tested on Streptococcus pyogenes (assay: Antibacterial activity against Streptococcus pyogenes after 24 hr by disk diffusion method). Details: not given.
Type: functional

Structure (SMILES) | diameter of the inhibition zone (DIZ) [mm]
CCCCCCCC/C=C\CCCCCCCC(=O)NN1C(=O)CSC1c1ccc(Cl)cc1 (centres undefined) | 18.1

These compounds were tested on Talaromyces marneffei (assay: Antifungal activity against Talaromyces marneffei incubated for 48 hr followed by subculturing measured after 48 hr). Details: not given.
Type: functional

Structure (SMILES) | MFC [µg/mL]
CCCCCCCC/C=C\CCCCCCCC(=O)NN1C(=O)CSC1c1ccc(Cl)cc1 (centres undefined) | 50 (≈ 101 µM)
